Measurements published in BindingDB's records for patent US11111270 (Sanford Burnham Prebys Medical Discovery Institute, 2021).

Biological target: T1, E3 ubiquitin-protein ligase XIAP [163-230]/[26-93] (Homo sapiens, UniProt P98170+P98170)
T1 construct: 163-230; 26-93
Assay: Biological Assay
Method: 5000 PPC-1 cells were plated and grown overnight. Compounds were plated and 4 hrs later, TRAIL was added to half of the plate while RPMI was added to the other half of the plate as a control. Plates were return to the incubator for 24 hrs. Plates were removed from the incubator and placed on the bench for 30 min and then 25 uL of Cell Titer Glo were added per well. Plates were placed on a rocker and then read on a luminometer. 5000 MDA-MB-231 cells were plated per well. Compound was added and 4 hrs later, TRAIL was added at 5 ng/mL; RPMI was added for a minus TRAIL control. Plates were incubated an additional 24 hrs, removed to the bench for 30 min, and then 25 uL of cell titer glo was added per well. Plates were placed on a rocker and read on a luminometer. Data were fit using PRISM.

T1 sequence (P98170 26-93): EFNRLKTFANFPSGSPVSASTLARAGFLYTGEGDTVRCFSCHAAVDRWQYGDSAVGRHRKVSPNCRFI
T1 sequence (P98170 163-230): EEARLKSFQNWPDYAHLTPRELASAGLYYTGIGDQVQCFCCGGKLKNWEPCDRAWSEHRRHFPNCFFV

In the case of CN[C@@H](C)C(=O)N[C@H]1CCCNC2CCC(C(=O)N[C@@H]3CCCc4ccccc43)N2C1=O (stereo partly specified) [US11111270, Compound 16], the Ki is reported as “in the range around 37.5 µM”.
